Source: ChEMBL document CHEMBL4725410, “Novel Heteroaromatic Compounds as Vanin Inhibitors” (ACS Med Chem Lett, 2020)

Target: T1, Pantetheinase (Homo sapiens, UniProt O95497)
T1 sequence (O95497 whole entry): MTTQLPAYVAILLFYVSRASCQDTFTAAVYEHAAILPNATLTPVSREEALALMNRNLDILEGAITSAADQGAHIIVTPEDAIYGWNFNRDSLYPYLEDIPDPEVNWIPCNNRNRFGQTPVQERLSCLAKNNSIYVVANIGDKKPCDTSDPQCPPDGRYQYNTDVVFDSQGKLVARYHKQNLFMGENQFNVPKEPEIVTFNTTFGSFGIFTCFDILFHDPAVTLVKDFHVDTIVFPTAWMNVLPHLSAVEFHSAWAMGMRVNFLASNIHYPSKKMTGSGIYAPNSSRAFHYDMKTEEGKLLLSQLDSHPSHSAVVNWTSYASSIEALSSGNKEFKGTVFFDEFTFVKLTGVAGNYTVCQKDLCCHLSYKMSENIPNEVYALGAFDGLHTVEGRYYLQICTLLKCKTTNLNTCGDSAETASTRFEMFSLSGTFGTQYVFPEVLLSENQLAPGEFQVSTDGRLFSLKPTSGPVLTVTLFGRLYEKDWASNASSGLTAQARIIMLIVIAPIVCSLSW
Test: Inhibition of human vanin-1 in whole blood
Type: tissue-based

Going from `CC(=O)N(C)[C@H]1CCN(C(=O)c2ccc(NC(C)(C)CCO)nc2)C1` to `CCC(C)(C)Nc1ccc(C(=O)N2CC[C@H](N(C)C(C)=O)C2)cn1`, the IC50 rises from 1.6 nM to 3.1 nM (1.9-fold). The first is the more potent here.

`CN(C(=O)[C@@H]1CCCO1)[C@H]1CCN(C(=O)c2ccc(NC(C)(C)C)nc2)C1` and `CN(C(=O)C1CC(F)(F)C1)[C@H]1CCN(C(=O)c2ccc(NC(C)(C)C)nc2)C1` are within 1.5-fold of each other in IC50: 2.7 nM for the first, 3.6 nM for the second.

`CC(C)(C)Nc1ccc(C(=O)N2CC(C)(c3ccccn3)C2)cn1` and `CC(C)(C)Nc1ccc(C(=O)N2CC[C@H](N3CCOC3=O)C2)cn1` are within 1.5-fold of each other in IC50: 2.7 nM for the first, 4 nM for the second.
